Reference: ChEMBL document CHEMBL1148176, “Polycyclic guanidine alkaloids from the marine sponge Crambe crambe and Ca++ channel blocker activity of crambescidin 816” (J Nat Prod, 1993)
Activity calls are given as the source filed them. The rule behind the calls is not given here.

How the values were obtained:
[1] = system: Jejunum; test: Inhibition of acetylcholine-induced contraction in Sprague-Dawley rat jejunum at 6.0 pM pretreated for 3 mins before acetylcholine challenge; format: functional
[2] = Cytotoxicity against human HCT16 cells; format: functional, cell-based
[3] = system: Jejunum; test: Inhibition of acetylcholine-induced contraction in Sprague-Dawley rat jejunum at 0.6 pM pretreated for 3 mins before acetylcholine challenge; format: functional
[4] = system: Jejunum; test: Inhibition of Sprague-Dawley rat jejunum contraction at 0.6 to 6.0 pM; format: functional, tissue-based
[5] = system: Jejunum; test: Inhibition of acetylcholine-induced contraction in Sprague-Dawley rat jejunum at 1.2 pM pretreated for 3 mins before acetylcholine challenge; format: functional
[6] = target: L-type calcium channel (Mus musculus, UniProt Q01815+Q02789+Q99246+Q9JIS7); test: Antagonist activity at voltage-dependent L-type calcium channel in mouse neurobalstoma-rat glioma NG 108-15 hybrid cells assessed as inhibition of KCl-induced increase in intracellular calcium level pretreated for 3 mins before KCl challenge; format: functional, cell-based
[7] = system: Poecilia reticulata; test: Toxicity against Lebistes reticulatus at 0.2 mg/l; format: organism-based; details: in vivo
[8] = system: Ileum; test: Inhibition of acetylcholine-induced contraction in guinea pig ileum; format: functional, tissue-based; details: Cavia porcellus
[9] = system: Ephydatia fluviatilis; test: Inhibition of reaggregation of cells in Ephydatia fluviatilis; format: functional
[10] = system: Jejunum; test: Inhibition of acetylcholine-induced contraction in Sprague-Dawley rat jejunum pretreated for 3 mins before acetylcholine challenge; format: functional, tissue-based

CC[C@H]1C=CCC[C@]2(C[C@H]3CC[C@]4(O)[C@H](C(=O)OCCCCCCCCCCCCCCCC(=O)N(CCCN)C[C@@H](O)CCN)[C@@]5(CCC[C@@H](C)O5)NC(=[N+]34)N2)O1.[Cl-] [CRAMBESCIDIN 816 HYDROCHLORIDE]
inhibition at 6 pM [1]: 30% | IC50 [2]: 0.24 µg/mL | inhibition at 600 fM [3]: 18% | Activity [4]: inactive | inhibition at 1.2 pM [5]: 25% | IC50 [6]: 1.5 ×10⁻⁴ microM | Activity ([6]; mouse): Dose-dependent effect | Activity [7]: Toxic | Activity [8]: Active | Activity [9]: 1.2 mM | Activity [10]: Dose-dependent effect

CCCCCCCCCCCC1N=C(N)N2CCCC2=C1C(=O)OCCCCNC(=N)N.Cl (stereo not drawn) [CRAMBINE A]
Activity [7]: Toxic | Activity [9]: 2.3 mM

CCCCCCCCCCC[C@@H]1N=C(N)N[C@]2(CCCO2)[C@@H]1C(=O)OCCCCCNC(=N)N.Cl [CRAMBINE B]
Activity [7]: Toxic | Activity [9]: 2 mM

CCCCCCCCCCCC1N=C(N)NC(CCCO)=C1C(=O)OCCCCCNC(=N)N.Cl (stereo not drawn) [CRAMBINE C1]
Activity [7]: Toxic | Activity [9]: 2.1 ×10⁻² M

COC(=O)C1=C(C)NC(C)=C(C(=O)OC)C1c1ccccc1[N+](=O)[O-] [NIFEDIPINE]
IC50 [6]: 1.2 µM
